The test system of data set [1] is mouse fibroblast (L929). The experiment in a line: Cytotoxicity (MTT) assay, L929. The data set is classed as cell-based. To be noted: Mus musculus, n.a. = no activity. An excerpt:
(§1) MTT (3-(4,5-dimethylthiayol-2-yl)-2,5-diphenyltetrazolium bromide)-based assay was used to determine in vitro cytotoxicity as previously reported.[24] The tested mammalian cell lines included mouse fibroblasts (L929), endocervical adenocarcinoma (KB3.1), human lung carcinoma (A549), breast adenocarcinoma (MCF-7), prostate carcinoma (PC-3), and epidermoid carcinoma cells (A431).

For data set [2], the system named is human endocervical adenocarcinoma (KB3.1). Description: Cytotoxicity (MTT) assay, KB3.1. In kind it is cell-based. To be noted: Homo sapiens, KB 3-1, n.a. = no activity.
Excerpt: as §1

Data set [3] has as its system human prostate carcinoma (PC-3). The experiment in a line: Cytotoxicity (MTT) assay, PC-3. In kind it is cell-based. To be noted: PC-3, read-out: IC50. From the text: (§2) MTT (3-(4,5-dimethylthiayol-2-yl)-2,5-diphenyltetrazolium bromide)-based assay was used to determine in vitro cytotoxicity as previously reported.[24] The tested mammalian cell lines included mouse fibroblasts (L929), endocervical adenocarcinoma (KB3.1), human lung carcinoma (A549), breast adenocarcinoma (MCF-7), prostate carcinoma (PC-3), and epidermoid carcinoma cells (A431). Epothilone B was used as a positive control.

The subject of data set [4] is human breast adenocarcinoma (MCF-7). Description: Cytotoxicity (MTT) assay, MCF-7. In kind it is cell-based. To be noted: MCF7, MCF-7, read-out: IC50.
Excerpt: as §2

The subject of data set [5] is human ovarian cancer (SKOV-3). Description: Cytotoxicity (MTT) assay, SKOV-3. The data set is classed as cell-based. The note with it: SK-OV-3, SKOV-3, read-out: IC50.
Data set [6] deals with human epidermoid carcinoma (A431). Description: Cytotoxicity (MTT) assay, A431. The data set is classed as cell-based. To be noted: A-431, A431, read-out: IC50.
Excerpt: as §2

In data set [7] the test system is human lung carcinoma (A549). Description: Cytotoxicity (MTT) assay, A549. The data set is classed as cell-based. To be noted: A549, read-out: IC50.
Excerpt: as §2

Data set [8] deals with Staphylococcus aureus (DSM 346). The experiment in a line: Antimicrobial assay (MIC), S. aureus. In kind it is cell-based. The method, then:
(§3) The antimicrobial effects of the isolated compounds were determined using our established protocols.[19] Generally, an array of clinically relevant microorganisms consisting of bacteria, namely, S. aureus (DSM 346), A. baumanii (DSM 30008), B. subtilis (DSM 10), E. coli (DSM 1116), P. aeruginosa (PA14), C. violaceum (DSM 30191), and M. smegmatis (ATCC 700084), and fungi including M. hiemalis (DSM 2656), C. albicans (DSM 1665), R. glutinis (DSM 10134), S. pombe (DSM 70572), and P. anomala (DSM 6766), were used. […] The minimum inhibitory concentrations (MIC) were recorded after an overnight incubation as the lowest concentration under which no microbial growth was visualized. The microorganisms were obtained from the German Collection of Microorganisms and Cell Cultures (DSMZ, Braunschweig, Germany).

Data set [9] concerns Escherichia coli (DSM 1116). The experiment in a line: Antimicrobial assay (MIC), E. coli. The data set is classed as cell-based. The note with it: overnight incubation, n.i. = no inhibition up to 67 μg/mL. The procedure: as §3
The subject of data set [10] is Bacillus subtilis (DSM 10). Description: Antimicrobial assay (MIC), B. subtilis. In kind it is cell-based. The method, then: as §3
Data set [11] relates to Pseudomonas aeruginosa (PA14). The experiment in a line: Antimicrobial assay (MIC), P. aeruginosa. To be noted: overnight incubation, n.i. = no inhibition up to 67 μg/mL. The data set is classed as cell-based. The procedure: as §3
Data set [12] has as its system Pichia anomala (DSM 6766). Description: Antimicrobial assay (MIC), P. anomala. In kind it is cell-based. The procedure: as §3
The test system of data set [13] is Candida albicans (DSM 1665). The experiment in a line: Antimicrobial assay (MIC), C. albicans. The data set is classed as cell-based. The method, then:
as §3

Data set [14] deals with Acinetobacter baumanii (DSM 30008). The experiment in a line: Antimicrobial assay (MIC), A. baumanii. The data set is classed as cell-based. To be noted: overnight incubation, n.i. = no inhibition up to 67 μg/mL. The procedure: as §3
Data set [15] deals with Chromobacterium violaceum (DSM 30191). Description: Antimicrobial assay (MIC), C. violaceum. The data set is classed as cell-based. The note with it: overnight incubation, n.i. = no inhibition up to 67 μg/mL. The procedure: as §3
Data set [16] deals with Schizosaccharomyces pombe (DSM 70572). The experiment in a line: Antimicrobial assay (MIC), S. pombe. The data set is classed as cell-based. The procedure:
as §3

Data set [17] deals with Mucor hiemalis (DSM 2656). Description: Antimicrobial assay (MIC), M. hiemalis. The data set is classed as cell-based. The procedure: as §3
Data set [18] deals with Rhodotorula glutinis (DSM 10134). Description: Antimicrobial assay (MIC), R. glutinis. In kind it is cell-based. The procedure:
as §3

Data set [19] concerns Mycobacterium smegmatis (ATCC 700084). Description: Antimicrobial assay (MIC), M. smegmatis. The data set is classed as cell-based. The method, then: as §3
The test system of data set [20] is all tested cell lines. The experiment in a line: Cytotoxicity (MTT) assay, all tested cell lines. In kind it is cell-based. The note with it: for IC50: read-out: IC50 values, range against all tested cell lines.
Excerpt: as §2

Details of data set [21]: method as in doi:10.1021/np50038a013. The note with it: previous report; cited from earlier work.
Data set [22] concerns P. anomala, M. hiemalis, and Rhodotorula glutinis. The experiment in a line: Antimicrobial assay (MIC), three fungi summarised in text. The data set is classed as cell-based. To be noted: range over three fungi. The method, then:
as §3

The mark [23] stands for this setting: overnight incubation, n.i. = no inhibition up to 67 μg/mL.
Where [24] appears, read: DSM2656, overnight incubation, n.i. = no inhibition up to 67 μg/mL, read-out: MIC.
Setting [25] is: DSM10134, overnight incubation, n.i. = no inhibition up to 67 μg/mL, read-out: MIC.
[26] abbreviates: Mycobacterium smegmatis, overnight incubation, n.i. = no inhibition up to 67 μg/mL.

The term IC50 denotes the concentration needed to halve the response being measured. Usually MIC stands for the smallest concentration in the dilution series that meets the test's criterion for growth inhibition.

Values after ≈ are worked out from the molar mass of the structure shown. Values joined by “and” are separate entries in the source; they are usually repeats but may differ in a detail not shown here. Equal values may be shown once. Read-outs that look alike come from different tables or passages of the source.

In the case of `CC1(C)CC2C=C(C=O)[C@]3(C=O)C[C@]3(C)C2C1` (single isomer, unassigned; (+)) [Compound 8, (+)-isovelleral], the IC50 in [1] was 10.3 µM; in data set [2], 10.3 µM; in data set [3], 3.9 µM; in data set [4], 2.8 µM; in data set [5] it was 5.2 µM; in [6] it was 3.4 µM. The 50% inhibitory concentration (IC50) in data set [7] was 30.2 µM; in data set [20] it was 2.8 to 30.2 µM. Moreover, the MIC in data set [8] (DSM346) is 33.3 mg/L (≈ 143 µM); in data set [9] it was “n.i”; in data set [10] (DSM10), 33.3 mg/L (≈ 143 µM); in data set [11], “n.i”; in data set [12] (Hansenula anomala, DSM6766) it was 16.6 mg/L (≈ 71.5 µM); in data set [13] (DSM1665) it was 33.3 mg/L (≈ 143 µM). The MIC result in data set [14] is “n.i”; in data set [15] it was “n.i”; in [16] (DSM70572) it was 33.3 mg/L (≈ 143 µM); in data set [17] (DSM2656), 8.3 mg/L (≈ 35.7 µM); in [18] (DSM10134) it was 16.6 mg/L (≈ 71.5 µM); in data set [19] (Mycolicibacterium smegmatis, ATCC700084), 33.3 mg/L (≈ 143 µM). For the same molecule, the mutagenicity entry in data set [21] was “revealed mutagenicity”.
`CC(C)=CCc1cc(C=O)ccc1O` [Compound 9, 4-hydroxy-3(3-methylbut-2-enyl)benzaldehyde]: the minimum inhibitory concentration (MIC) entry in [8] (setting [23]) was “n.i”; in data set [9], “n.i”; in [10] (setting [23]) it was “n.i”; in data set [11], “n.i”; in [12] (Hansenula anomala, DSM6766, Pichia anomala, overnight incubation, n.i. = no inhibition up to 67 μg/mL, read-out: MIC), 33.3 mg/L (≈ 175 µM); in data set [13] (setting [23]) it was “n.i”. Moreover, the MIC result in data set [14] is “n.i”; in data set [15], “n.i”; in data set [16] (setting [23]) it was “n.i”; in data set [17] (setting [24]), 66.6 mg/L (≈ 350 µM); in [18] (setting [25]) it was 66.6 mg/L (≈ 350 µM); in [19] (setting [26]), “n.i”. For the same molecule, in data set [20] (tested cell lines), the “cytotoxic effects (in words)” value is reported as “no apparent cytotoxic effects”. In data set [22], the “MIC values, range against P. anomala, M. hiemalis, and Rhodotorula glutinis” value lay in the range of 33.3 to 66.6 mg/L.
With `CC(=O)O[C@@H]1CC2C3=C(C(C)C)CC[C@]3(C)CC[C@@]2(C)[C@@H](OC2OC[C@@H](O)[C@H](O)[C@H]2O)C=C1C=O` (stereo partly shown) [Compound 7, erinacine P], the half-maximal inhibitory concentration (IC50) in data set [1] was 13 µM; in data set [2], 5.1 µM; in data set [3], 4.9 µM; in data set [4] it was 3.3 µM; in data set [5] it was 7.7 µM; in data set [6] it was 3.5 µM. Besides, the IC50 was 14.2 µM in data set [7]; 3.3 to 14.2 µM and 3.5 to 14.2 µM in data set [20] (range over all tested cell lines). The MIC in [8] (DSM346, overnight incubation, n.i. = no inhibition up to 67 μg/mL, read-out: MIC) is 66.6 mg/L (≈ 135 µM); in [9], “n.i”; in [10] (DSM10, overnight incubation, n.i. = no inhibition up to 67 μg/mL, read-out: MIC), 33.3 mg/L (≈ 67.6 µM); in data set [11] it was “n.i”; in data set [12] (Pichia anomala, overnight incubation, n.i. = no inhibition up to 67 μg/mL), “n.i”; in data set [13] (setting [23]), “n.i”. The MIC result in data set [14] is “n.i”; in data set [15], “n.i”; in data set [16] (setting [23]) it was “n.i”; in data set [17] (setting [24]), 66.6 mg/L (≈ 135 µM); in data set [18] (setting [25]) it was 16.6 mg/L (≈ 33.7 µM); in data set [19] (setting [26]), “n.i”.

(Values after paper PMC11044139, “Comparative Study of Toxic Terpenoidal Aldehydes and Lactone Derivatives from the European Polypore Bondarzewia mesenterica” (ACS Omega, 2024).)
